Results from the Bradley open melting point set (2014).

Structure (SMILES)	melting point [°C]
CCCCC(=O)N(Cc1ccc(-c2ccccc2-c2nnn[nH]2)cc1)C(C(=O)O)C(C)C (stereo unspecified) [valsartan]	116
COc1cc(C(=O)O)ccc1O [vanillic acid]	214
Nc1c2c(nc3ccccc13)CCCC2O (stereo unspecified) [velnacrine]	245
COc1ccc(C=O)cc1OC [veratraldehyde]	44
COc1ccccc1OC [veratrole]	22
C=CC1(C(C)CCC)C(=O)NC(=O)NC1=O (stereo unspecified) [vinylbital]	90
CC(=O)Oc1c(C)c(C)c2c(c1C)CC[C@@](C)(CCC[C@H](C)CCC[C@H](C)CCCC(C)C)O2 [vitamin e acetate]	-28
NC(=O)C1c2ccccc2Oc2ccccc21 [xanthene-9-carboxamide]	245
O=c1c2ccccc2oc2ccccc12 [xanthone]	176
OC1c2ccccc2Oc2ccccc21 [xanthydrol]	124
Cc1cccc(OCC(O)CNC(C)(C)C)c1C (stereo unspecified) [xibenolol]	57
